These results are taken from patent US10030027B2, “Soluble guanylate cyclase stimulators” (MERCK SHARP & DOHME CORP., priority 2015, dated 2018).

As usually defined, the Ki is the equilibrium dissociation constant of an inhibitor or competing ligand from its target.

For one test, the target named is sGC α1/β1 heterodimer (Homo sapiens (Human), UniProt Q02108+Q02153). Put plainly: Cell-based sGC functional assay (cyclic GMP assay for sGC activator: CASA assay). More on the design: % Activation: concentration or dose not given beside the values. As to conditions: CHO-K1/sGC cells; for Emax: CHO-K1, activity expressed as percentage of compound A (standard), read-out: % Activation; for EC50: inflection point, 4P fit, read-out: IP. The gist of the method:
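CHO-K1 cells stably expressing human sGC α1/β1 were pre-incubated 30 min at 25° C with or without 1 μM DETA-NO, then exposed to compound for 1 hr at 37° C with 0.5 mM IBMX and 2.5% DMSO final. Intracellular cGMP was measured by HTRF, expressed as % of reference sGC-HDA maximum; inflection point and maximum fold induction came from 4-parameter fits.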

The test system of test [1] is Spontaneously hypertensive rats (SHR). The experiment in a line: Acute efficacy in spontaneously hypertensive rats (SHR). It counts as in vivo, rat. An excerpt:
Acute Efficacy in Spontaneously Hypertensive Rats (SHR)
Spontaneously hypertensive rats (SHR, male, Charles River) were implanted with DSI TA11PA-C40 telemetry device (Data Sciences, Inc., St. Paul, Minn.) under isoflurane or ketamine/metomidine anesthesia. The telemetry unit catheter was inserted into the descending aorta via the femoral artery and the telemetry device was implanted subcutaneously in the left flank area. Animals were allowed to recover from surgery for 14 days before the start of any studies. Blood pressure, heart rate, and activity signals from conscious, freely moving rats were recorded continuously for 30 seconds every 10 minutes. On the day prior to administration of compound, a single oral dose of vehicle (10% transcutol/20% Cremophor/70% water) was administered to all animals to establish baseline control data. The blood pressure lowering efficacy of compound (PO) or vehicle was evaluated following a single oral gavage. Data were collected as hourly averages, and changes in blood pressure were calculated by subtracting control baseline data on an hourly basis. Animals were maintained on normal diet with a 12 hour light-dark cycle.
Maximum peak decreases of systolic blood pressure (SBP) in SHR at a particular P.O. dose (mpk milligrams per kilogram) for the following Example compounds are provided.

The target in test [2] is human recombinant sGC enzyme (Homo sapiens (Human), UniProt Q02108+Q02153). The experiment in a line: Size Exclusion Chromatography (SEC) competition binding assay using [3H] Ex-77B as the radioligand. To be noted: [3H] Ex-77B radioligand, 24 hours at 37° C. In short, it runs like this: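 Recombinant human sGC binding measured by competition against tritiated Ex-77B radioligand, with non-specific binding defined by 1 μM unlabeled Ex-77B.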
A general note: Size exclusion chromatography separates by hydrodynamic size, large species first.

The structures appear in SMILES notation.

Turning to `C[C@@]1(c2ccc(CCC(=O)O)cc2)C(=O)Nc2nc(-c3nn(CC45CC6CC(CC(C6)C4)C5)c4cc(Cl)ccc34)nc(N)c21` [Example 70B, (S)-3-(4-{2-[1-(adamantan-1-ylmethyl)-6-chloro-1H-indazol-3-yl]-4-amino-5-methyl-6-oxo-6,7-dihydro-5H-pyrrolo[2,3-d]pyrimidin-5-yl}phenyl)propanoic acid], at sGC α1/β1 heterodimer, the Emax came out at 120% and the EC50 is 649 nM. The “Category: maximum peak decrease of systolic blood pressure (SBP) in SHR” value (shortened to “Category: maximum peak decrease”) in test [1] (Dose P.O. 3 mpk) is “A (decrease in SBP in SHRs 5-25 mmHg)”.

Take `C[C@@]1(c2ccc(CCC(=O)O)cc2)C(=O)Nc2nc(-c3nn(CC4CCCCC4)c4cc(Cl)ccc34)nc(N)c21` [Example 44B, (S)-3-(4-{4-amino-2-[6-chloro-1-(cyclohexylmethyl)-1H-indazol-3-yl]-5-methyl-6-oxo-6,7-dihydro-5H-pyrrolo[2,3-d]pyrimidin-5-yl}phenyl)propanoic acid]: on sGC α1/β1 heterodimer, the Emax stood at 127% and the EC50 amounted to 245 nM. In addition, the inhibition constant (Ki) in test [2] worked out at 0.123 nM. The “Category: maximum peak decrease” value in test [1] (Dose P.O. 3 mpk) is recorded as “C (decrease in SBP in SHRs>40 mmHg)”.

As to `Cc1cc(C2(C)C(=O)Nc3nc(-c4nn(CCC(F)(F)C(F)(F)F)c5cc(Cl)ccc45)nc(N)c32)ccc1CCC(=O)O` (centres unmarked) [Example 121B, 3-(4-{4-Amino-2-[6-chloro-1-(3,3,4,4,4-pentafluorobutyl)-1H-indazol-3-yl]-5-methyl-6-oxo-6,7-dihydro-5H-pyrrolo[2,3-d]pyrimidin-5-yl}-2-methylphenyl)propanoic acid], at sGC α1/β1 heterodimer, the Emax amounted to 118% and the EC50 was found to be 238 nM. Also, the inhibition constant Ki in test [2] turned out to be 0.234 nM. Besides, in test [1] (Dose P.O. 3 mpk), the “Category: maximum peak decrease” value is listed as “A (decrease in SBP in SHRs 5-25 mmHg)”.

Take `CCCCn1nc(-c2nc(N)c3c(n2)NC(=O)[C@@]3(C)c2ccc(CCC(=O)O)cc2)c2ccc(Cl)nc21` [Example 13B, (S)-3-(4-{4-amino-2-(1-butyl-6-chloro-1H-pyrazolo[3,4-b]pyridin-3-yl)-5-methyl-6-oxo-6,7-dihydro-5H-pyrrolo[2,3-d]pyrimidin-5-yl}phenyl)propanoic acid]: on sGC α1/β1 heterodimer, the Emax is 86% and the EC50 is 152 nM. Further, the Ki in test [2] was determined as 0.112 nM. Moreover, the “Category: maximum peak decrease” value in test [1] (Dose P.O. 3 mpk) was “A (decrease in SBP in SHRs 5-25 mmHg)”.

Take `C[C@@]1(c2ccc(CCC(=O)O)cc2)C(=O)Nc2nc(-c3nn(Cc4ccccc4F)c4ccccc34)nc(N)c21` [Example 76B, (S)-3-(4-{4-Amino-2-[1-(2-fluorobenzyl)-1H-indazol-3-yl]-5-methyl-6-oxo-6,7-dihydro-5H-pyrrolo[2,3-d]pyrimidin-5-yl}phenyl)propanoic acid]: the “Category: maximum peak decrease” value in test [1] (Dose P.O. 3 mpk) is reported as “B (decrease in SBP in SHRs 25-40 mmHg)”.

For `C[C@@]1(c2ccc(CCC(=O)O)cc2)C(=O)Nc2nc(-c3nn(CC4CCC(F)(F)CC4)c4cc(Cl)ccc34)nc(N)c21` [Example 58B, (S)-3-(4-[4-amino-2-{6-chloro-1-[(4,4-difluorocyclohexyl)methyl]-1H-indazol-3-yl}-5-methyl-6-oxo-6,7-dihydro-5H-pyrrolo[2,3-d]pyrimidin-5-yl]phenyl)propanoic acid], at sGC α1/β1 heterodimer, the Emax was found to be 65% and the EC50 worked out at 1130 nM. Further, in test [2], the inhibition constant (Ki) is 0.493 nM. The “Category: maximum peak decrease” value in test [1] (Dose P.O. 3 mpk) is on record as “A (decrease in SBP in SHRs 5-25 mmHg)”.

For `CC1CCC(Cn2nc(-c3nc(N)c4c(n3)NC(=O)[C@@]4(C)c3ccc(CCC(=O)O)cc3)c3ccc(Cl)cc32)CC1` (single isomer, unassigned) [Example 5BA], at sGC α1/β1 heterodimer (activity expressed as percentage of compound A (standard)), the “% Activation” value was 76%. The EC50 on sGC α1/β1 heterodimer is 132 nM. Also, the Ki in test [2] came out at 0.162 nM. In addition, in test [1] (Dose P.O. 3 mpk), the “Category: maximum peak decrease” value is reported as “B (decrease in SBP in SHRs 25-40 mmHg)”.

For `CC(C)(Cc1cccc(C2(C)C(=O)Nc3nc(-c4nn(CCC(F)(F)C(F)(F)F)c5cc(Cl)ccc45)nc(N)c32)c1)C(=O)O` (centres unmarked) [Example 27B, 3-(3-{4-amino-2-[6-chloro-1-(3,3,4,4,4-pentafluorobutyl)-1H-indazol-3-yl]-5-methyl-6-oxo-6,7-dihydro-5H-pyrrolo[2,3-d]pyrimidin-5-yl}phenyl)-2,2-dimethylpropanoic acid], at sGC α1/β1 heterodimer, the Emax is 120% and the EC50 is 331 nM. In test [2], the inhibition constant (Ki) worked out at 0.221 nM. Besides, in test [1] (Dose P.O. 1 mpk), the “Category: maximum peak decrease” value is given as “A (decrease in SBP in SHRs 5-25 mmHg)”.

As to `C[C@@]1(c2nc(CCC(=O)O)cs2)C(=O)Nc2nc(-c3nn(CCC(F)(F)C(F)(F)F)c4ncccc34)nc(N)c21` (single isomer, unassigned) [Example 82B], at sGC α1/β1 heterodimer, the Emax is 107% and the EC50 was determined as 1370 nM. The Ki in test [2] stood at 0.223 nM. In addition, the “Category: maximum peak decrease” value in test [1] (Dose P.O. 3 mpk) was “A (decrease in SBP in SHRs 5-25 mmHg)”.

Take `CCCCCCn1nc(-c2nc(N)c3c(n2)NC(=O)[C@@]3(C)c2ccc(CCC(=O)O)cc2)c2ccc(Cl)cc21` [Example 45B, (S)-3-{4-[4-amino-2-(6-chloro-1-hexyl-1H-indazol-3-yl)-5-methyl-6-oxo-6,7-dihydro-5H-pyrrolo[2,3-d]pyrimidin-5-yl]phenyl}propanoic acid]: on sGC α1/β1 heterodimer, the Emax amounted to 95% and the EC50 is 210 nM. Moreover, the inhibition constant (Ki) in test [2] stood at 0.182 nM. In addition, the “Category: maximum peak decrease” value in test [1] (Dose P.O. 3 mpk) is listed as “B (decrease in SBP in SHRs 25-40 mmHg)”.

In the case of `CC(C)(Cc1ccc(C2(C)C(=O)Nc3nc(-c4nn(CCC(F)(F)C(F)(F)F)c5cc(Cl)ccc45)nc(N)c32)cc1)C(=O)O` (centres unmarked) [Example 33B, 3-(4-{4-amino-2-[6-chloro-1-(3,3,4,4,4-pentafluorobutyl)-1H-indazol-3-yl]-5-methyl-6-oxo-6,7-dihydro-5H-pyrrolo[2,3-d]pyrimidin-5-yl}phenyl)-2,2-dimethylpropanoic acid], at sGC α1/β1 heterodimer, the Emax came to 100% and the EC50 is 804 nM. Further, the inhibition constant (Ki) in test [2] amounted to 0.594 nM. Moreover, the “Category: maximum peak decrease” value in test [1] (Dose P.O. 3 mpk) is “B (decrease in SBP in SHRs 25-40 mmHg)”.

In the case of `CC1(c2cccc(CCC(=O)O)c2)C(=O)Nc2nc(-c3nn(Cc4ccccc4F)c4ncccc34)nc(N)c21` (centres unmarked) [Example 22A, 3-(3-{4-amino-2-[1-(2-fluorobenzyl)-1H-pyrazolo[3,4-b]pyridin-3-yl]-5-methyl-6-oxo-6,7-dihydro-5H-pyrrolo[2,3-d]pyrimidin-5-yl}phenyl)propanoic acid], on sGC α1/β1 heterodimer, the Emax was 91% and the EC50 is 423 nM. Also, the inhibition constant (Ki) in test [2] is 0.078 nM. In addition, the “Category: maximum peak decrease” value in test [1] (Dose P.O. 3 mpk) is on record as “A (decrease in SBP in SHRs 5-25 mmHg)”.

`CCCCn1nc(-c2nc(N)c3c(n2)NC(=O)[C@@]3(C)c2ccc(CCC(=O)O)cc2)c2cccnc21` [Example 14B, (S)-3-(4-{4-amino-2-(1-butyl-1H-pyrazolo[3,4-b]pyridin-3-yl)-5-methyl-6-oxo-6,7-dihydro-5H-pyrrolo[2,3-d]pyrimidin-5-yl}phenyl)propanoic acid]: at sGC α1/β1 heterodimer, the Emax stood at 90% and the EC50 turned out to be 525 nM. Moreover, in test [2], the Ki was found to be 0.21 nM. In addition, in test [1] (Dose P.O. 3 mpk), the “Category: maximum peak decrease” value is “A (decrease in SBP in SHRs 5-25 mmHg)”.

With `CC(C)(CC(=O)O)c1csc([C@]2(C)C(=O)Nc3nc(-c4nn(CCC(F)(F)C(F)(F)F)c5ncccc45)nc(N)c32)n1` [Example 79B, (S)-3-(2-{4-amino-5-methyl-6-oxo-2-[1-(3,3,4,4,4-pentafluorobutyl)-1H-pyrazolo[3,4-b]pyridin-3-yl]-6,7-dihydro-5H-pyrrolo[2,3-d]pyrimidin-5-yl}-1,3-thiazol-4-yl)-3-methylbutanoic acid], at sGC α1/β1 heterodimer, the Emax is 124% and the EC50 worked out at 843 nM. In test [2], the Ki amounted to 0.42 nM. The “Category: maximum peak decrease” value in test [1] (Dose P.O. 3 mpk) was “A (decrease in SBP in SHRs 5-25 mmHg)”.

Consider `Cc1ccc2c(-c3nc(N)c4c(n3)NC(=O)[C@@]4(C)c3ccc(CCC(=O)O)cc3)nn(Cc3ccccc3F)c2c1` [Example 59B, (S)-3-(4-{4-amino-2-[1-(2-fluorobenzyl)-6-methyl-1H-indazol-3-yl]-5-methyl-6-oxo-6,7-dihydro-5H-pyrrolo[2,3-d]pyrimidin-5-yl}phenyl)propanoic acid], for which, on sGC α1/β1 heterodimer, the Emax came out at 116% and the EC50 is 858 nM. For the same molecule, the Ki in test [2] was found to be 0.293 nM. Besides, the “Category: maximum peak decrease” value in test [1] (Dose P.O. 3 mpk) is “A (decrease in SBP in SHRs 5-25 mmHg)”.
